# Data from patent US20100286181A1, “PYRROLE DERIVATIVES WITH ANTIBACTERIAL ACTIVITY” (ASTRAZENECA AB, priority 2006, published 2010).
# What was measured:
# [1] = system: SPN548; test: Bacterial susceptibility testing in liquid media (MIC), SPN548; type: cell-based; conditions: strain SPN548
# Text: (§1) Compounds may be tested for antimicrobial activity by susceptibility testing in liquid media. Compounds may be dissolved in dimethylsulfoxide and tested in 10 doubling dilutions in the susceptibility assays. The organisms used in the assay may be grown overnight on suitable agar media and then suspended in a liquid medium appropriate for the growth of the organism. The can be was a 0.5 McFarland and a further 1 in 10 dilution can be made into the same liquid medium to prepare the final organism suspension in 100 pt. Plates can be incubated under appropriate conditions at 37° C. for 24 hrs prior to reading. The Minimum Inhibitory Concentration (MIC) may be determined as the lowest drug concentration able to reduce growth by 80% or more.
# [2] = system: MCA445; test: Bacterial susceptibility testing in liquid media (MIC), MCA445; type: cell-based; conditions: strain MCA445
# Text: as §1
# [3] = system: EFM073; test: Bacterial susceptibility testing in liquid media (MIC), EFM073; type: cell-based; conditions: strain EFM073
# Text: as §1
# [4] = system: HIN446; test: Bacterial susceptibility testing in liquid media (MIC), HIN446; type: cell-based; conditions: strain HIN446
# Text: as §1
# [5] = system: SAU516; test: Bacterial susceptibility testing in liquid media (MIC), SAU516; type: cell-based; conditions: strain SAU516
# Text: as §1
# [6] = target: GyrB ATPase activity (E. coli GyrA, E. coli GyrB) (Escherichia coli, UniProt P0AES6); test: GyrB ATPase inhibition activity assay (ammonium molybdate/malachite green phosphate detection); type: biochemical; conditions: figure quoted may be an average of two or more results
# Description: Compounds may be tested for inhibition of GyrB ATPase activity using an ammonium molybdate/malachite green-based phosphate detection assay (Lanzetta, P. A., L. J. Alvarez, P. S. Reinach, and O. A. Candia, 1979, 100: 95-97). Assays can be performed in multiwell plates in 100 μl reactions containing: 50 mM HEPES buffer pH 7.5, 75 mM ammonium acetate, 5.5 mM magnesium chloride, 0.5 mM ethylenediaminetetraacetic acid, 5% glycerol, 1 mM 1,4-Dithio-DL-threitol, 200 nM bovine serum albumin, 5 μg/ml sheared salmon sperm DNA, 2.5 nM E. coli GyrA, 2.5 nM E. coli GyrB, 250 μM ATP, and compound in dimethylsulfoxide. Reactions can be quenched with 150 μl of ammonium molybdate/malachite green detection reagent containing 1.2 mM malachite green hydrochloride, 8.5 mM ammonium molybdate tetrahydrate, and 1 M hydrochloric acid.
# Compounds of the Examples could be expected to have IC50 values of <200 μg/ml in one or both assays described herein above. For Example the following results were obtained in a GyrB ATPase inhibition activity assay substantially similar to the above wherein the figure quoted may be an average of two or more results
Structure (SMILES),IC50 [6] [nM],further results
"Cc1[nH]c(C(=O)NC2CCN(c3ncc(C(=O)O)s3)CC23OCCCO3)c(Cl)c1Cl (stereo not drawn) [Example 16, 2-(11-{[(3,4-Dichloro-5-methyl-1H-pyrrol-2-yl)carbonyl]amino}-1,5-dioxa-8-azaspiro[5.5]undec-8-yl)-1,3-thiazole-5-carboxylic acid]",< 9.77,MIC SPN548 [1]: < 0.063 µg/mL; MIC MCA445 [2]: 0.13 µg/mL; MIC EFM073 [3]: 1 µg/mL; MIC HIN446 [4]: 1 µg/mL; MIC SAU516 [5]: 2 µg/mL
"C=C1COC2(CN(c3ncc(C(=O)O)s3)CCC2NC(=O)c2[nH]c(C)c(Cl)c2Cl)OC1 (stereo not drawn) [Example 56, 2-(11-{[(3,4-Dichloro-5-methyl-1H-pyrrol-2-yl)carbonyl]amino}-3-methylene-1,5-dioxa-8-azaspiro[5.5]undec-8-yl)-1,3-thiazole-5-carboxylic acid]",< 9.77,
"Cc1[nH]c(C(=O)NC2CCN(c3ncc(C(=O)O)s3)CC23OCC(C)(C)CO3)c(Cl)c1Cl (stereo not drawn) [Example 57, 2-(11-{[(3,4-Dichloro-5-methyl-1H-pyrrol-2-yl)carbonyl]amino}-3,3-dimethyl-1,5-dioxa-8-azaspiro[5.5]undec-8-yl)-1,3-thiazole-5-carboxylic acid]",< 9.77,
"COC(=O)c1cnc(N2CCC(NC(=O)c3[nH]c(C)c(Cl)c3Cl)C3(C2)OCC(C)(C)CO3)s1 (stereo not drawn) [Example 64, Methyl 2-(11-{[(3,4-dichloro-5-methyl-1H-pyrrol-2-yl)carbonyl]amino}-3,3-dimethyl-1,5-dioxa-8-azaspiro[5.5]undec-8-yl)-1,3-thiazole-5-carboxylate]",155,
"COC(=O)c1cnc(N2CC[C@@H](NC(=O)c3[nH]c(C)c(Cl)c3Cl)[C@@H](n3ccnn3)C2)s1 [Example 70, Methyl 2-[(3S,4R)-4-{[(3,4-dichloro-5-methyl-1H-pyrrol-2-yl)carbonyl]amino}-3-(1H-1,2,3-triazol-1-yl)-1-piperidinyl]-1,3-thiazole-5-carboxylate]",12.4,
"COC(=O)c1cnc(N2CC[C@@H](NC(=O)c3[nH]c(C)c(Cl)c3Cl)[C@@H](n3cc(Cl)nn3)C2)s1 [Example 71, Methyl 2-[(3S,4R)-3-(4-chloro-1H-1,2,3-triazol-1-yl)-4-[(3,4-dichloro-5-methyl-1H-pyrrole-2-carbonyl)amino]-1-piperidinyl]-1,3-thiazole-5-carboxylate]",40,
"Cc1[nH]c(C(=O)N[C@@H]2CCN(c3nc4cccc(C(N)=O)c4s3)C[C@@H]2n2ccnn2)c(Cl)c1Cl [Example 82, 2-[(3S,4R)-4-{[(3,4-Dichloro-5-methyl-1H-pyrrol-2-yl)carbonyl]amino}-3-(1H-1,2,3-triazol-1-yl)piperidin-1-yl]-1,3-benzothiazole-7-carboxamide]",< 9.77,
"CCOC(=O)c1sc(N2CC[C@@H](NC(=O)c3[nH]c(C)c(Cl)c3Cl)[C@@H](n3cc(C#N)nn3)C2)nc1C(=O)NCCOC [Example 92, Ethyl 2-[(3S,4R)-3-(4-cyano-1H-1,2,3-triazol-1-yl)-4-[(3,4-dichloro-5-methyl-1H-pyrrole-2-carbonyl)amino]-1-piperidinyl]-4-(2-methoxyethylcarbamoyl)-1,3-thiazole-5-carboxylate]",< 9.77,
COCCNC(=O)c1nc(N2CC[C@@H](NC(=O)c3[nH]c(C)c(Cl)c3Cl)[C@@H](n3ccnn3)C2)sc1C(=O)O [Example 100],< 9.77,
"Cc1[nH]c(C(=O)N[C@@H]2CCN(c3ncc(C(=O)O)s3)C[C@@H]2n2ccnn2)c(Cl)c1Cl [Example 101, 2-[(3S,4R)-4-{[(3,4-Dichloro-5-methyl-1H-pyrrol-2-yl)carbonyl]amino}-3-(1H-1,2,3-triazol-1-yl)piperidin-1-yl]-1,3-thiazole-5-carboxylic acid]",< 9.77,
Cc1[nH]c(C(=O)N[C@@H]2CCN(c3ncc(C(=O)O)s3)C[C@@H]2N=[N+]=[N-])c(Cl)c1Cl [Example 102],< 9.77,
COCCNC(=O)c1nc(N2CC[C@@H](NC(=O)c3[nH]c(C)c(Cl)c3Cl)[C@@H](N=[N+]=[N-])C2)sc1C(=O)O [Example 103],< 9.77,
COCCNC(=O)c1nc(N2CC[C@@H](NC(=O)c3[nH]c(C)c(Cl)c3Cl)[C@@H](n3cc(C)nn3)C2)sc1C(=O)O [Example 104],< 9.77,
COCC(COC)NC(=O)c1nc(N2CC[C@@H](NC(=O)c3[nH]c(C)c(Cl)c3Cl)[C@@H](n3cc(C)nn3)C2)sc1C(=O)O [Example 105],< 9.77,
COCC(COC)(COC)NC(=O)c1nc(N2CC[C@@H](NC(=O)c3[nH]c(C)c(Cl)c3Cl)[C@@H](n3cc(C)nn3)C2)sc1C(=O)O [Example 106],< 432,
Cc1[nH]c(C(=O)N[C@@H]2CCN(c3ncc(C(=O)O)s3)C[C@@H]2n2cc(Cl)nn2)c(Cl)c1Cl [Example 107],< 9.77,

Structure (SMILES),IC50 [6] [nM],further results
"COCCNC(=O)c1nc(N2CC[C@@H](NC(=O)c3[nH]c(C)c(Cl)c3Cl)[C@@H](n3cc(Cl)nn3)C2)sc1C(=O)O [Example 108, 2-((3S,4R)-3-(4-Chloro-1H-1,2,3-triazol-1-yl)-4-{[(3,4-dichloro-5-methyl-1H-pyrrol-2-yl)carbonyl]amino}piperidin-1-yl)-4-{[(2-methoxyethyl)amino]carbonyl}-1,3-thiazole-5-carboxylic acid]",< 9.77,
COCC(COC)NC(=O)c1nc(N2CC[C@@H](NC(=O)c3[nH]c(C)c(Cl)c3Cl)[C@@H](n3cc(Cl)nn3)C2)sc1C(=O)O [Example 109],< 9.77,
Cc1[nH]c(C(=O)N[C@@H]2CCN(c3nc(C(=O)NC4CC4)c(C(=O)O)s3)C[C@@H]2n2cc(Cl)nn2)c(Cl)c1Cl [Example 110],< 9.77,
COCC(COC)NC(=O)c1nc(N2CC[C@@H](NC(=O)c3[nH]c(C)c(Cl)c3Cl)[C@@H](n3cc(CC#N)nn3)C2)sc1C(=O)O [Example 111],< 9.77,
COCC(COC)NC(=O)c1nc(N2CC[C@@H](NC(=O)c3[nH]c(C)c(Cl)c3Cl)[C@@H](n3cc(CF)nn3)C2)sc1C(=O)O [Example 112],< 9.77,
COCC(COC)NC(=O)c1nc(N2CC[C@@H](NC(=O)c3[nH]c(C)c(Cl)c3Cl)[C@@H](n3cc(Br)nn3)C2)sc1C(=O)O [Example 113],< 9.77,
COCC(COC)NC(=O)c1nc(N2CC[C@@H](NC(=O)c3[nH]c(C)c(Cl)c3Cl)[C@@H](n3cc(CO)nn3)C2)sc1C(=O)O [Example 114],< 9.77,
COCCNC(=O)c1nc(N2CC[C@@H](NC(=O)c3[nH]c(C)c(Cl)c3Cl)[C@@H](n3cc(CO)nn3)C2)sc1C(=O)O [Example 115],< 9.77,
COCc1cn([C@H]2CN(c3nc(C(=O)NC(COC)COC)c(C(=O)O)s3)CC[C@H]2NC(=O)c2[nH]c(C)c(Cl)c2Cl)nn1 [Example 116],< 9.77,
COCCNC(=O)c1nc(N2CC[C@@H](NC(=O)c3[nH]c(C)c(Cl)c3Cl)[C@@H](n3cc(COC)nn3)C2)sc1C(=O)O [Example 117],< 9.77,
COCC(COC)NC(=O)c1nc(N2CC[C@@H](NC(=O)c3[nH]c(C)c(Cl)c3Cl)[C@@H](n3ccnn3)C2)sc1C(=O)O [Example 118],< 9.77,
"CONC(=O)c1cnc(N2CC[C@@H](NC(=O)c3[nH]c(C)c(Cl)c3Cl)[C@@H](n3ccnn3)C2)s1 [Example 120, 2-[(3S,4R)-4-{[(3,4-Dichloro-5-methyl-1H-pyrrol-2-yl)carbonyl]amino}-3-(1H-1,2,3-triazol-1-yl)piperidin-1-yl]-N-methoxy-1,3-thiazole-5-carboxamide]",19.6,
"CCOC(=O)c1cccc2nc(N3CC[C@@H](NC(=O)c4[nH]c(C)c(Cl)c4Cl)[C@@H](n4ccnn4)C3)sc12 [Example 123, Ethyl 2-[(3S,4R)-4-{[(3,4-dichloro-5-methyl-1H-pyrrol-2-yl)carbonyl]amino}-3-(1H-1,2,3-triazol-1-yl)piperidin-1-yl]-1,3-benzothiazole-7-carboxy late]",218,
"Cc1[nH]c(C(=O)N[C@@H]2CCN(c3nc4cccc(C(=O)O)c4s3)C[C@@H]2n2ccnn2)c(Cl)c1Cl [Example 124, 2-[(3S,4R)-4-{[(3,4-Dichloro-5-methyl-1H-pyrrol-2-yl)carbonyl]amino}-3-(1H-1,2,3-triazol-1-yl)piperidin-1-yl]-1,3-benzothiazole-7-carboxylic acid]",< 9.77,
"CONC(=O)c1cccc2nc(N3CC[C@@H](NC(=O)c4[nH]c(C)c(Cl)c4Cl)[C@@H](n4ccnn4)C3)sc12 [Example 125, 2-[(3S,4R)-4-{[(3,4-Dichloro-5-methyl-1H-pyrrol-2-yl)carbonyl]amino}-3-(1H-1,2,3-triazol-1-yl)piperidin-1-yl]-N-methoxy-1,3-benzothiazole-7-carboxamide]",< 9.77,
